What all share (assay type): biochemical
The target of one assay is T1, DLAR D2 (Drosophila melanogaster, UniProt P16621).
T1 construct: DLAR 1728-2029; His tag (pET-15b or pET-22b); made in house; host or cells: E. coli BL21(DE3)
T1 sequence (P16621 1728-2029): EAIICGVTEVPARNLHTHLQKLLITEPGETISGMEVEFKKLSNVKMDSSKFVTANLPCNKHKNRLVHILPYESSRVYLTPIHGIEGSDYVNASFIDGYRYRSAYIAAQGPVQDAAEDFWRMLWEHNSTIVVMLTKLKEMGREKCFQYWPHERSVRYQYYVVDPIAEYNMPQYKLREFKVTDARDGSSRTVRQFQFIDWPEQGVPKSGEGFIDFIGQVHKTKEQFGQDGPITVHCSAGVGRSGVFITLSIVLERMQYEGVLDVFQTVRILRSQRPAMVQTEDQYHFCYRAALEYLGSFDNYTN
The experiment in a line: Phosphatase assay using pNPP, DLAR D2. Particulars: CGH buffer pH 6.5. As for the experimental part:
(§1) Phosphatase activity of the recombinant PTP domains was determined by using para-Nitrophenylphosphate (pNPP), a small molecule generic substrate, as well as phosphotyrosine containing peptides. The pNPP assay was performed as reported previously, with a modification in the buffer composition (25 mM Citrate, Glycine and HEPES (CGH), pH 6.5, 100 mM NaCl and 2 mM DTT). Phosphatase activity with the phosphotyrosine peptides was ascertained by the malachite green reaction as described for PTPs previously. Briefly, the reaction mixture comprised of 0.01 µM protein incubated with increasing concentrations of different peptides in 25 mM citrate buffer pH 6.0, 100 mM NaCl and 2 mM DTT for 15 min at 25°C. The reaction was stopped by the addition of the Biomol Green reagent (Enzo Life Sciences) and the colour developed after 20 min was quantified at 650 nm. For all the assays, kinetic constants for the steady state catalysis were obtained by fitting the reaction curves to the Michaelis-Menten equation using the nonlinear regression module of Sigma plot software (Systat Software, Inc.).

The target in a further assay is T2, DLAR D1 (Drosophila melanogaster, UniProt P16621).
T2 construct: DLAR 1448-1746; His tag (pET-15b or pET-22b); made in house; host or cells: E. coli BL21(DE3)
T2 sequence (P16621 1448-1746): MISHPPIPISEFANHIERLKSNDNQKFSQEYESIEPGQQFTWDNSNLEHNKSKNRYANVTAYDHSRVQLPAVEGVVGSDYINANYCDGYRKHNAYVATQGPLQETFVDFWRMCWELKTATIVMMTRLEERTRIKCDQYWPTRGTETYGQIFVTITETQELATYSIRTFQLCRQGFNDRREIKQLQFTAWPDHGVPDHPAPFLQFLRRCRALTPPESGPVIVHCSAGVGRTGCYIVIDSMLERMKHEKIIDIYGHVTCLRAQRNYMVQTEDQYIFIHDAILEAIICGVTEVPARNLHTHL
The experiment in a line: Phosphatase assay using pNPP, DLAR D1. Particulars: CGH buffer pH 6.5, 100 mM NaCl, 2 mM DTT. As for the experimental part: as §1
(§2) The tandem PTP domains of PTP99A (PTP99A D1D2) and DLAR (DLAR D1D2) , the individual PTP domains (D1 and D2) as well as the active site mutants were expressed in E. coli and were purified using the protocols described earlier (Figure 1a, Figure S1a, b & c). The biochemical characterization and catalytic activity measurements were performed using pNPP as a substrate. […] Thus the D2 domain appears to have a regulatory role in both RPTPs- decreasing the catalytic activity in the case of DLAR while increasing the catalytic activity in the case of PTP99A (Figure 1b).

The next assay addresses T3, DLAR D1D2 (Drosophila melanogaster, UniProt P16621).
T3 construct: DLAR 1448-2029; His tag (pET-15b or pET-22b); made in house; host or cells: E. coli BL21(DE3)
T3 sequence (P16621 1448-2029): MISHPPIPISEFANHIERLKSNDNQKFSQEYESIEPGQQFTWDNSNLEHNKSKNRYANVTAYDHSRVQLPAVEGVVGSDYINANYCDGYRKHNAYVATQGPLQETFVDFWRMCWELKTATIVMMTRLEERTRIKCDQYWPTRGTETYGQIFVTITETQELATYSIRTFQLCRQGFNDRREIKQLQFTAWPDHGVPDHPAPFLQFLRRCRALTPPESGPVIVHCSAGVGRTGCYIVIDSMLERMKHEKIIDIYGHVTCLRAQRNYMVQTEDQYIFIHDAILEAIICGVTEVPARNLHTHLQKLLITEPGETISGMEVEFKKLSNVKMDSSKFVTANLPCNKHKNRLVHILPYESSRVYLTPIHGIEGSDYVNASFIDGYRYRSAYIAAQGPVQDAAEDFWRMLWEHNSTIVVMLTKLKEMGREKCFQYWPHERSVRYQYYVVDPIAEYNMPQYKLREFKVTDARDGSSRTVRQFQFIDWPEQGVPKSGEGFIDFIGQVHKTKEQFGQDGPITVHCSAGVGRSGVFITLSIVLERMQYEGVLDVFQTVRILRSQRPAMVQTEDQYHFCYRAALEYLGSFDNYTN
The experiment in a line: Phosphatase assay using pNPP, DLAR D1D2. The settings on record: 2 mM DTT. As for the experimental part:
as §1, §2

In another assay the target is T4, PTP99A D2 (Drosophila melanogaster, UniProt P35832).
T4 sequence (P35832 740-1050): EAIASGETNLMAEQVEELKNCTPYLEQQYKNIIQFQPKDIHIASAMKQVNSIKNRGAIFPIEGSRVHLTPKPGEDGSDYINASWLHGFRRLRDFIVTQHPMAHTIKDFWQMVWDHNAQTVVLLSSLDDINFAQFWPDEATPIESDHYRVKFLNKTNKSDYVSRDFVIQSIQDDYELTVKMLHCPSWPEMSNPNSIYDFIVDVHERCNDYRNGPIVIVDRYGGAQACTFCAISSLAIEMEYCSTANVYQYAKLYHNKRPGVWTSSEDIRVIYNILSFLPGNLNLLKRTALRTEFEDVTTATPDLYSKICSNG
The experiment in a line: Phosphatase assay using pNPP, PTP99A D2. The settings on record: CGH buffer pH 6.5. As for the experimental part: as §1

Molecules are shown by their SMILES. Values joined by “and” are separate entries in the source; they are usually repeats but may differ in a detail not shown here. Equal entries are not always repeated.

Consider `O=[N+]([O-])c1ccc(OP(=O)(O)O)cc1` [pNPP, para-Nitrophenylphosphate], for which the PTPase activity entry at DLAR D2 and on PTP99A D2 was “no detectable activity” each time. Besides, the Kcat on DLAR D1 came out at 16.10 ± 0.27 s⁻¹; on DLAR D1D2 (CGH buffer pH 6.5, 100 mM NaCl), 6.88 ± 0.16 s⁻¹. Further, the Kcat/Km at DLAR D1 was 16.03 ± 0.11 x 10^3 sec^-1M^-1; on DLAR D1D2 (CGH buffer pH 6.5, 100 mM NaCl) it was 3.23 ± 0.09 x 10^3 sec^-1M^-1. Besides, the Vmax at DLAR D1 (Michaelis-Menten fit) was 20.56 µmol/min/mg and 20.56 ± 0.34 µmol/min/mg; on DLAR D1D2 (25 mM Citrate, Glycine and HEPES (CGH), pH 6.5, 100 mM NaCl, Michaelis-Menten fit), 6.19 µmol/min/mg and 6.19 ± 0.14 µmol/min/mg.

Broadly, the Vmax is the rate approached at saturating substrate.

The record behind these values is publication PMC3172300, “Modulation of Catalytic Activity in Multi-Domain Protein Tyrosine Phosphatases” (PLoS ONE, 2011).
